Results from patent publication US7112680B2, “Heterocyclic hydrazones for use as anti-cancer agents” (Austria Wirtschaftsservice Gesellschaft MIT Beschrankter …, priority 2000, dated 2006).
Read-outs that look alike come from different tables or passages of the source.

Key:
[1] = tested on: HeLa (epitheloid cervix carcinoma); test: Inhibition of tumor cell growth, SRB-assay, HeLa; assay type: cell-based, human
[2] = tested on: CCRF-CEM (acute lymphoblastic leukemia); test: Inhibition of tumor cell growth, MTT-assay, CCRF-CEM; assay type: cell-based, human; details: Table 2, 72 hours
[3] = tested on: Burkitt's lymphoma (CA 46, ATCC No. CRL 1648); test: Inhibition of tumor cell growth, MTT-assay, Burkitt's lymphoma; assay type: cell-based, human
Procedure: (§1) The KB cell lines were grown in Dulbecco's modified Eagle's medium (4,5 g glucose/l). To the cultures of KB-C1 cells 1 μg of colchicine/ml, and to the hydroxyurea-resistant KB-HU cells 1 mM hydroxyurea was added every other week. […] 3,000 - 10,000 cells in 200 μl medium were seeded per well into 96-well plates. […] Approximately 10,000 cells per 100 μl were seeded in 96-well plates. […] The substances were dissolved in dimethylsulfoxide (DMSO). […] Subsequently, the samples were fixed, washed, and the absorption was determined by a microplate reader.

[4] = tested on: HT-29 (colon adenocarcinoma); test: Inhibition of tumor cell growth, SRB-assay, HT-29; assay type: cell-based, human
Procedure: as §1

MEXF 276L (melanoma) = test: Inhibition of tumor cell growth, SRB-assay, MEXF 276L; assay type: cell-based, human; details: Table 2, 72 hours
Procedure: as §1

[5] = tested on: K562 (chronic myelogenous leukemia); test: Inhibition of tumor cell growth, K562; assay type: cell-based, human; details: 72 hours
Procedure: (§2) In order to obtain information about the growth-inhibiting action on tumor cells, the inhibition of the growth of the following human tumor cells was determined: Burkitt's lymphoma (CA 46, ATCC No. CRL 1648), CCRF-CEM (acute lymphoblastic leukemia, ATCC No. CCL 119), K562 (chronic myelogenous leukemia, ATTC No. CCL 243), HeLa (epitheloid cervix carcinoma, ATCC No. CCL 2), MEXF 276L (melanoma), HT-29 (colon adenocarcinoma, ATCC No. HTB 38), KB-3-1 (human oral epidermoid carcinoma, CTCC No. CCL 17), KB-HU hydroxyurea-resistant, multidrug-resistant KB-C1 cells (Akiyama et al, Cell. Mol Genet., 11:117–126, 1985). Burkitt's, CCRF-CEM, HeLa and MEXF 276L cells were grown in RPMI 1640, HT-29 cells in McCoy's 5A medium. The KB cell lines were grown in Dulbecco's modified Eagle's medium (4,5 g glucose/l). To the cultures of KB-C1 cells 1 μg of colchicine/ml, and to the hydroxyurea-resistant KB-HU cells 1 mM hydroxyurea was added every other week. The media were supplemented with 10% fetal calf serum (except Burkitt's lymphoma cells with 15%), 2 mM glutamine, 50 units/ml penicillin and 50 μg/ml streptomycin. Inhibition of growth of HeLa, HT-29, KB and MEXF 276L cells was detected by the SRB-assay (Skehan et al, J. Natl Cancer Inst., 82:1107–1112, 1990). 3,000 - 10,000 cells in 200 μl medium were seeded per well into 96-well plates. Dose-response curves for CCRF-CEM and Burkitt's lymphoma cells were effected by an MTT-assay (Mosman, J. Immunol Methods, 65:55–63, 1983) from Boehringer Mannheim, Mannheim, Germany. Approximately 10,000 cells per 100 μl were seeded in 96-well plates. After an initial incubation of four hours, various substance concentrations were added, and the cells were incubated at 37° C. in a water-saturated atmosphere of 95% air and 5% CO2 for 72 hours. The substances were dissolved in dimethylsulfoxide (DMSO). The concentration of DMSO was 0.5%, and this was not toxic to the cells. Subsequently, the samples were fixed, washed, and the absorption was determined by a microplate reader.

[6] = tested on: KB-HU hydroxyurea-resistant cells; test: Inhibition of tumor cell growth, SRB-assay, KB-HU; assay type: cell-based, human; details: Table 4, 72 hours, read-out: In vitro-activity against human tumor cell lines, KB-HU
Procedure: as §2

[7] = tested on: multidrug-resistant KB-C1 cells; test: Inhibition of tumor cell growth, SRB-assay, KB-C1; assay type: cell-based, human; details: read-out: In vitro-activity against human tumor cell lines, KB-C1
Procedure: as §2

[8] = tested on: human tumor grafts (cell lines of FIG. 1); test: Colony forming assay (two-layer soft agar); assay type: cell-based; details: for IC50 / IC90 / Mean IC70: mean values of all cell lines tested in FIG. 1, continuous exposure 3 to 6 days
Procedure: An excellent correlation of drug response in patients and the colony forming assay has been found (Scholz et al, Eur. J. Cancer 25:901–905, 1990). Solid human tumors were grown as grafts in nude mice, removed from the latter, mechanically comminuted and subsequently incubated in an enzyme cocktail consisting of collagenase (1.2–1.8 U/ml), DNAse (375 U/ml) and hyaluronidase (29 U/ml) in RPMI 1640 medium at 37° C. for 30 minutes. The cell mixture was passed through sieves of 200 μm and 50 μm mesh size and washed thereafter twice with PBS (phosphate buffered saline). The percentage of live cells was determined using a Neubauer counting chamber and trypan blue staining.
The colony forming assay was performed according to a two-layer agar technique introduced and modified by Hamburger and Salmon (Hamburger and Salmon, Science, 197:461–463, 1977). The bottom layer consisted of 0.2 ml of Iscoves's Modified Dulbecco's medium with 20% fetal calf serum and 0.75% agar. 8×10^3 to 1.6×10^4 cells were added to the same medium and 0.4% agar and plated in 24-multiwell plates onto the base layer. One day after the plating (with continuous exposure), the substances were added in 0.2 ml medium. Each plate included six controls containing the solvent only, and the treated groups contained 6 concentrations of the substances, each in triplicate. Cultures were incubated at 37° C. and 7% CO2 in a water-saturated atmosphere for 3 to 6 days, depending on the doubling time of the tumor cells. At the time of maximum colony formation with a size of […], counts were performed with an automatic image analysis system. 24 h prior to counting, live colonies were stained with a sterile aqueous solution of 2-(4-iodophenyl)-3-(4-nitrophenyl)-5-phenyltetrazolium chloride (1 mg/ml, 100 μl/well). The results of the tests are given in FIG. 1, and in the following Table 5, respectively. […] Columns pointing towards the right show a slighter than average activity.

[9] = tested on: KB-3-1 (human oral epidermoid carcinoma); test: Inhibition of tumor cell growth, SRB-assay, KB-3-1; assay type: cell-based; details: read-out: In vitro-activity against human tumor cell lines, KB-3-1
Procedure: as §2

[10] = Table 2, 72 hours, read-out: IC50 HeLa (converted)
[11] = Table 2, 72 hours, read-out: IC50 Burkitts
[12] = Table 2, 72 hours, read-out: IC50 HT-29 (converted)
[13] = Table 4, 72 hours, read-out: In vitro-activity against human tumor cell lines, HeLa
[14] = Table 4, 72 hours, read-out: In vitro-activity against human tumor cell lines, Burkitts
[15] = Table 4, 72 hours, read-out: In vitro-activity against human tumor cell lines, HT-29
[16] = Table 1, 72 hours, read-out: IC50 HeLa (converted)
[17] = Table 1, 72 hours, read-out: IC50 HT-29 (converted)

Row | IC50 [1, 10] [nM] | IC50 [2] [nM] | IC50 [3, 11] [nM] | IC50 [4, 12] [nM] | IC50 (MEXF 276L (melanoma); read-out: IC50 MEXF276L) [nM] | Compound | also measured
1 | – | – | – | – | – | CC(=NNc1nc2ccccc2[nH]1)c1ccncn1 [Ib-6, 1-(4-Pyrimidinyl)-1-ethanone-1-(1H-benzo[d]imidazol-2-yl)-hydrazone] | IC50 ([1]; Homo sapiens, HeLa, Table 2, 72 hours, read-out: IC50 HeLa (converted)): 880 nM; IC50 ([2]; Homo sapiens, CCRF-CEM): 410 nM; IC50 ([3]; Homo sapiens, CA46, Table 2, 72 hours, read-out: IC50 Burkitts): 560 nM; IC50 ([4]; Homo sapiens, HT-29, Table 2, 72 hours, read-out: IC50 HT-29 (converted)): 570 nM; IC50 (MEXF 276L (melanoma); Homo sapiens, MEXF276L): 910 nM
2 | 1490 | 840 | 1220 | 880 | 2000 | CC(=NNc1nc2ccccc2[nH]1)c1cnc(C)cn1 [Ib-16] | –
3 | 210 | 220 | 40 | 120 | 1220 | CC(=NNc1nc2ccccc2o1)c1cc(C)ncn1 [Ib-10] | –
4 | – | – | – | – | – | CC(=NNc1nc2ccccc2n1C1CC1)c1ccccn1 [Ic-6] | IC50 ([5]; Table 3): 90 nM; IC50 ([1]; Table 3, 72 hours, read-out: IC50 HeLa (converted)): 400 nM; IC50 ([4]; Table 3, 72 hours, read-out: IC50 HT-29 (converted)): 11200 nM
5 | 1990 | 1300 | 1870 | 1960 | 2360 | CC(=NNc1nc2ccccc2[nH]1)c1ccc(C)nn1 [Ib-4] | –
6 | – | – | – | – | – | CC(=NNc1nc2ccccc2n1C)c1cccc(Cl)n1 [Id-5] | IC50 [6]: 20 nM; IC50 ([7]; Table 4, 72 hours): 30 nM; IC50 [1, 13]: 190 nM; IC50 [8]: 3300 nM; IC90 [8]: 9380 nM; Mean IC70 [8]: 5740 nM; IC50 [3, 14]: 12 nM; IC50 [4, 15]: 320 nM; IC50 ([9]; Table 4, 72 hours): 7 nM
7 | 4530 | 7040 | 5490 | 7760 | > 10000 | CC(=NNc1nc2ccccc2o1)c1ccc2ccccc2n1 [Ib-19] | –
8 | 180 | 130 | 30 | 270 | 700 | CC(=NNc1nc2ccccc2o1)c1ncccn1 [Ib-27] | –
9 | 3530 | 2170 | 3370 | 2230 | 4240 | CC(=NNc1nc2ccccc2[nH]1)c1nccnc1C [Ib-14] | –
10 | 1250 | 720 | 1340 | 1770 | 1960 | CC(=NNc1nc2ccccc2o1)c1cccnn1 [Ib-3] | –
11 | 1230 | 980 | 840 | 2060 | 2140 | CC(=NNc1nc2ccccc2[nH]1)c1cccnn1 [Ib-1] | –
12 | – | – | – | – | – | CC(=NNc1nc2ccccc2n1C)c1ncccc1N(C)C [Id-11] | IC50 [6]: 240 nM; IC50 ([7]; Table 4, 72 hours): 60 nM; IC50 [1, 13]: 20 nM; IC50 [8]: 137 nM; IC90 [8]: 2900 nM; Mean IC70 [8]: 397 nM; IC50 [3, 14]: 2 nM; IC50 [4, 15]: 160 nM; IC50 ([9]; Table 4, 72 hours): 8 nM
13 | 410 | 340 | 140 | 230 | 1300 | CC(=NNc1nc2ccccc2o1)c1ccncn1 [Ib-8] | –
14 | 630 | 200 | 220 | 420 | 960 | CC(=NNc1nc2ccccc2[nH]1)c1ncccn1 [Ib-25] | –
15 | – | – | – | – | – | Cn1c(NN=C(c2ccccn2)c2ccccn2)nc2ccccc21 [Ia-37] | IC50 ([5]; Table 1): 30 nM; IC50 [1, 16]: 90 nM; IC50 [4, 17]: 4640 nM
16 | 1610 | 460 | 840 | 1040 | 2250 | CC(=NNc1nc2ccccc2o1)c1ccc(C)nn1 [Ib-5] | –
17 | – | – | – | – | – | Cn1c(NN=C(Cc2ccccc2)c2ccccn2)nc2ccccc21 [Ia-33] | IC50 ([5]; Table 1): 120 nM; IC50 [1, 16]: 24 nM; IC50 [4, 17]: 14100 nM
18 | 370 | 620 | 150 | 280 | 1660 | CC(=NNc1nc2ccccc2o1)c1cnc(C)cn1 [Ib-17] | –
19 | 890 | 660 | 390 | 360 | 1140 | CC(=NNc1nc2ccccc2[nH]1)c1cc(C)ncn1 [Ib-9] | –
20 | – | – | – | – | – | CC(=NNc1nc2ccccc2n1C)c1cc(-c2ccccc2)ccn1 [Id-15] | IC50 [6]: 120 nM; IC50 ([7]; Table 4, 72 hours): 230 nM; IC50 [1, 13]: 40 nM; IC50 [8]: 429 nM; IC90 [8]: 5670 nM; Mean IC70 [8]: 1017 nM; IC50 [3, 14]: 30 nM; IC50 [4, 15]: 50 nM; IC50 ([9]; Table 4, 72 hours): 140 nM
21 | 1870 | 1300 | 910 | 2150 | 5380 | CC(=NNc1nc2ccccc2o1)c1nccnc1C [Ib-15] | –
22 | – | – | – | – | – | CC(=NNc1nc2ccccc2n1C)c1cc(Cl)ccn1 [Id-4, 1-(4-Chloro-2-pyridyl)-1-ethanone-1-(1-methyl-1H-benzo[d]imidazol-2-yl)-hydrazone] | IC50 ([6]; Homo sapiens): 270 nM; IC50 ([7]; Homo sapiens, KBC-1, Table 4, 72 hours): 90 nM; IC50 ([1]; Homo sapiens, HeLa, Table 4, 72 hours, read-out: In vitro-activity against human tumor cell lines, HeLa): 170 nM; IC50 ([8]; Homo sapiens): 301 nM; IC90 ([8]; Homo sapiens): 4290 nM; tumor type selectivity ([8]; colony forming assay, IC70 pattern, FIG. 1): selectivity for colon, breast, ovarian, and uterus tumors; Mean IC70 [8]: 956 nM; IC50 ([3]; Homo sapiens, CA46, Table 4, 72 hours, read-out: In vitro-activity against human tumor cell lines, Burkitts): 4 nM; IC50 ([4]; Homo sapiens, HT-29, Table 4, 72 hours, read-out: In vitro-activity against human tumor cell lines, HT-29): 520 nM; IC50 ([9]; Homo sapiens, KB 3-1, Table 4, 72 hours): 71 nM
23 | 340 | 350 | 200 | 1930 | 1560 | CC(=NNc1nc2ccccc2o1)c1nccc2ccccc12 [Ib-21] | –
